Results from patent US20240083892A1 (BISICHEM CO., LTD., priority 2021, published 2024).
pIC50: −log10 of the molar value.

Tests used:
RIPK1 [1] = molecular target: T1, RIPK1 (Homo sapiens, UniProt Q13546); test: Cell-based necroptosis assay for RIPK1 activity (cell viability by CCK-8); settings: HT-29 cells; Z-VAD-FMK 20 μM, human TNFα 10 ng/ml, SM-164 100 nM; 24 h; read-out: Cell-base RIPK1 activity: Necroptosis
T1 construct: endogenous in cells; host or cells: HT-29 (KCLB 30038)
T1 sequence (Q13546 1-671): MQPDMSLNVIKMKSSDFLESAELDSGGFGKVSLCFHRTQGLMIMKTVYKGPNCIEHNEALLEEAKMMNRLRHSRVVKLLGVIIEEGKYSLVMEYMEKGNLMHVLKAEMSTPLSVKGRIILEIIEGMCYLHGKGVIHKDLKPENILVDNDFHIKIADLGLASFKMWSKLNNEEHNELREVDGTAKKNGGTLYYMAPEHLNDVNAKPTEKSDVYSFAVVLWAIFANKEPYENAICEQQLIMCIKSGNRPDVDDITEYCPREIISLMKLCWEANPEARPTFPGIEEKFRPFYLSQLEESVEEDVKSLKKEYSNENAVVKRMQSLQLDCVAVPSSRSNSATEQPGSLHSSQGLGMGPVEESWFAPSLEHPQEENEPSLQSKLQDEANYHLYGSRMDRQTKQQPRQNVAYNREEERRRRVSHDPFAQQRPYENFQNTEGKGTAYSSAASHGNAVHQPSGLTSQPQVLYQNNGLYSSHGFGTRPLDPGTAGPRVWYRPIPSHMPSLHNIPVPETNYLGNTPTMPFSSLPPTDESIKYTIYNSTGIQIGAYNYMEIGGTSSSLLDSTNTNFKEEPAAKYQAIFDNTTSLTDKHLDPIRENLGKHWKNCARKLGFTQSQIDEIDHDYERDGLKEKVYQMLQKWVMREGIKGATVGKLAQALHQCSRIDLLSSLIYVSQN
Protocol: (§1) Human colon carcinoma cell HT-29 (KCLB 30038), BV2 mouse microglial cell (cell was a kind gift from Dr. Nak-Yun Sung, Senior researcher at Korea Prime Pharmacy CO., LTD.) and human microglial cell HMC3 (ATCC® CRL-3304™). HT-29 cell was grown in Roswell Park Memorial Institute (RPMI) 1640, BV2 cell was grown in Dulbecco's Modified Eagle's Medium (DMEM) and HMC3 cell was grown in Minimum Essential Media Eagle (MEM) supplemented with 10% fetal bovine serum and 1% mixture of penicillin and streptomycin (Gibco). Cells were maintained at 37° C. in a humidified 5% CO2 atmosphere.
To measure the activity of RIPK1 inhibitor in necroptotic cells, HT-29 cells were treated by control DMSO, human TNFα (Peprotech, Rocky Hill, USA), SM-164 (Biovision, California, USA) and a pan-caspase inhibitor Z-VAD-FMK (Invivogen, San Diego, USA). Cells were pretreated with Z-VAD-FMK 20 μM. After 30 min, human TNFα 10 ng/ml, SM-164 100 nM and RIPK1 Inhibitor (0.0001, 0.001, 0.01, 0.02, 0.05, 0.1, 1, 10 uM) were treated for 24 h. Cell viability was measured by Cell Counting Kit 8 (CCK-8) (Dong-in, Seoul, Korea).

RIPK1 [2] = molecular target: T1, RIPK1; test: Immunoblotting of TNFα induced phospho-RIPK1 (ser 166) levels; assay type: cell-based; settings: HMC3 cells; Z-VAD-FMK, human TNFα 20 ng/ml, SM-164 100 nM; 7 h, serum free media; read-out: Cell-base RIPK1 activity: phspho-RIPK1 (Ser166)
Protocol: as §1
Biological activity of the compounds of RIPK1 inhibitor was determined by measuring their ability to inhibitor TNFα induced phospho-RIPK1 (ser 166) levels, phospho-RIPK3 levels, phospho-MLKL levels in HMC3 cells. Cells were pretreated with Z-VAD-FMK […]. After 30 min, human TNFα 20 ng/ml, SM-164 100 nM and RIPK1 inhibitor (0.1, 1, 10 nM) were treated for 7 h under serum free media. Cells were lysed with cold lysis buffer containing 25 mM HEPES pH 7.6, […] NaCl, 1% NP40, 1% sodium deoxycholate, 0.1% SDS, and protease inhibitor mixture (Bimake, Houston, USA) using sonicators. The cells were centrifuged at 15,000 rpm, 4° C. for 5 min. After protein concentration of the lysates (supernatants) was quantified using BCA assay (Thermo Fisher Scientific, Waltham, USA), lysates were mixed with LDS sample buffer and heating at […] for 10 min. (Invitrogen, California, USA). […] The membranes are placed in an image analyzer (Imagequant, LAS 500, GE Healthcare), connected to a computer which allows the image generation (software Image reader LAS 500).

SMILES	pIC50 (RIPK1 [1])	pIC50 (RIPK1 [2])
CN1C(=O)[C@@H](NC(=O)n2cc(Cc3cccc(F)c3)cn2)COc2ccc(O[C@H]3CC[C@@H](O)CC3)cc21 [Example 34, 4-(3-fluorobenzyl)-N—((S)-7-(((1s,4R)-4-hydroxycyclohexyl)oxy)-5-methyl-4-oxo-2,3,4,5-tetrahydrobenzo[b][1,4]oxazepin-3-yl)-1H-pyrazole-1-carboxamide]	> 8.00	> 8.00
CN1C(=O)[C@@H](NC(=O)n2cc(Cc3cccc(F)c3)cn2)COc2ccc(OCC#CC3(O)CCCCC3)cc21 [Example 23, (S)-4-(3-fluorobenzyl)-N-(7-((3-(1-hydroxycyclohexyl)prop-2-yn-1-yl)oxy)-5-methyl-4-oxo-2,3,4,5-tetrahydrobenzo[b][1,4]oxazepin-3-yl)-1H-pyrazole-1-carboxamide]	> 8.00	> 8.00
CN1C(=O)[C@@H](NC(=O)n2cc(Cc3cccc(F)c3)cn2)COc2ccc(OCC(=O)N3CCC(C(C)(C)O)C3)cc21 (stereo partly drawn) [Example 48, 4-(3-fluorobenzyl)-N-((3S)-7-(2-(3-(2-hydroxypropan-2-yl)pyrrolidin-1-yl)-2-oxoethoxy)-5-methyl-4-oxo-2,3,4,5-tetrahydrobenzo[b][1,4]oxazepin-3-yl)-1H-pyrazole-1-carboxamide]	> 8.00	> 8.00
CN1C(=O)[C@@H](NC(=O)n2cc(Cc3cccc(F)c3)cn2)COc2ccc(OCC(=O)N3CC(C)(O)C3)cc21 [Example 49, (S)-4-(3-fluorobenzyl)-N-(7-(2-(3-hydroxy-3-methylazetidin-1-yl)-2-oxoethoxy)-5-methyl-4-oxo-2,3,4,5-tetrahydrobenzo[b][1,4]oxazepin-3-yl)-1H-pyrazole-1-carboxamide]	> 8.00	> 8.00
CN1C(=O)[C@@H](NC(=O)n2cc(Cc3cccc(F)c3)cn2)COc2ccc(O[C@@H]3CCOC3)cc21 [Example 32, 4-(3-fluorobenzyl)-N—((S)-5-methyl-4-oxo-7-(((R)-tetrahydrofuran-3-yl)oxy)-2,3,4,5-tetrahydrobenzo[b][1,4]oxazepin-3-yl)-1H-pyrazole-1-carboxamide]	> 8.00	
Cc1nnc(COc2ccc3c(c2)N(C)C(=O)[C@@H](NC(=O)n2cc(Cc4cccc(F)c4)cn2)CO3)o1 [Example 64, (S)-4-(3-fluorobenzyl)-N-(5-methyl-7-((5-methyl-1,3,4-oxadiazol-2-yl)methoxy)-4-oxo-2,3,4,5-tetrahydrobenzo[b][1,4]oxazepin-3-yl)-1H-pyrazole-1-carboxamide]	7.30 to 8.00	7.30 to 8.00
CN1C(=O)[C@@H](NC(=O)n2cc(Cc3cccc(F)c3)cn2)COc2ccc(C(=O)N3CCC(C(C)(C)O)CC3)cc21 [Example 6, (S)-4-(3-fluorobenzyl)-N-(7-(4-(2-hydroxypropan-2-yl)piperidine-1-carbonyl)-5-methyl-4-oxo-2,3,4,5-tetrahydrobenzo[b][1,4]oxazepin-3-yl)-1H-pyrazole-1-carboxamide]	> 8.00	> 8.00
CN1C(=O)[C@@H](NC(=O)n2cc(Cc3cccc(F)c3)cn2)COc2ccc(C(=O)N3CCC(O)CC3)cc21 [Example 4, (S)-4-(3-fluorobenzyl)-N-(7-(4-hydroxypiperidine-1-carbonyl)-5-methyl-4-oxo-2,3,4,5-tetrahydrobenzo[b][1,4]oxazepin-3-yl)-1H-pyrazole-1-carboxamide]	7.30 to 8.00	> 8.00
CN1C(=O)[C@@H](NC(=O)n2cc(Cc3cccc(F)c3)cn2)COc2ccc(OCC(O)c3ccccn3)cc21 (stereo partly drawn) [Example 69, 4-(3-fluorobenzyl)-N-((3S)-7-(2-hydroxy-2-(pyridin-2-yl)ethoxy)-5-methyl-4-oxo-2,3,4,5-tetrahydrobenzo[b][1,4]oxazepin-3-yl)-1H-pyrazole-1-carboxamide]	> 8.00	> 8.00
CN1C(=O)[C@@H](NC(=O)n2cc(Cc3cccc(F)c3)cn2)COc2ccc(OCC(=O)N3CCOCC3)cc21 [Example 39, (S)-4-(3-fluorobenzyl)-N-(5-methyl-7-(2-morpholino-2-oxoethoxy)-4-oxo-2,3,4,5-tetrahydrobenzo[b][1,4]oxazepin-3-yl)-1H-pyrazole-1-carboxamide]	> 8.00	> 8.00
CN(C)CCOc1ccc2c(c1)N(C)C(=O)[C@@H](NC(=O)n1cc(Cc3cccc(F)c3)cn1)CO2 [Example 17, (S)—N-(7-(2-(dimethylamino)ethoxy)-5-methyl-4-oxo-2,3,4,5-tetrahydrobenzo[b][1,4]oxazepin-3-yl)-4-(3-fluorobenzyl)-1H-pyrazole-1-carboxamide]	7.30 to 8.00	
CN1C(=O)[C@@H](NC(=O)n2cc(Cc3cccc(F)c3)cn2)COc2ccc(C(=O)N3CCC(O)C3)cc21 (stereo partly drawn) [Example 10, 4-(3-fluorobenzyl)-N-((3S)-7-(3-hydroxypyrrolidine-1-carbonyl)-5-methyl-4-oxo-2,3,4,5-tetrahydrobenzo[b][1,4]oxazepin-3-yl)-1H-pyrazole-1-carboxamide]	> 8.00	
CN1C(=O)[C@@H](NC(=O)n2cc(Cc3cccc(F)c3)cn2)COc2ccc(OCC(=O)NCC(C)(C)O)cc21 [Example 52, (S)-4-(3-fluorobenzyl)-N-(7-(2-((2-hydroxy-2-methylpropyl)amino)-2-oxoethoxy)-5-methyl-4-oxo-2,3,4,5-tetrahydrobenzo[b][1,4]oxazepin-3-yl)-1H-pyrazole-1-carboxamide]	> 8.00	
CN1CCN(C(=O)c2ccc3c(c2)N(C)C(=O)[C@@H](NC(=O)n2cc(Cc4cccc(F)c4)cn2)CO3)CC1 [Example 7, (S)-4-(3-fluorobenzyl)-N-(5-methyl-7-(4-methylpiperazine-1-carbonyl)-4-oxo-2,3,4,5-tetrahydrobenzo[b][1,4]oxazepin-3-yl)-1H-pyrazole-1-carboxamide]	7.30 to 8.00	
CN1CC[C@@H](Oc2ccc3c(c2)N(C)C(=O)[C@@H](NC(=O)n2cc(Cc4cccc(F)c4)cn2)CO3)C1 [Example 33, 4-(3-fluorobenzyl)-N—((S)-5-methyl-7-(((R)-1-methylpyrrolidin-3-yl)oxy)-4-oxo-2,3,4,5-tetrahydrobenzo[b][1,4]oxazepin-3-yl)-1H-pyrazole-1-carboxamide]	7.30 to 8.00	
CN1C(=O)[C@@H](NC(=O)n2cc(Cc3cccc(F)c3)cn2)COc2ccc(C(=O)NOCC(C)(C)O)cc21 [Example 13, (S)-3-(4-(3-fluorobenzyl)-1H-pyrazole-1-carboxamido)-N-(2-hydroxy-2-methylpropoxy)-5-methyl-4-oxo-2,3,4,5-tetrahydrobenzo[b][1,4]oxazepine-7-carboxamide]	7.30 to 8.00	
CN1C(=O)[C@@H](NC(=O)n2cc(Cc3cccc(F)c3)cn2)COc2ccc(C(=O)N3CCOCC3)cc21 [Example 9, (S)-4-(3-fluorobenzyl)-N-(5-methyl-7-(morpholine-4-carbonyl)-4-oxo-2,3,4,5-tetrahydrobenzo[b][1,4]oxazepin-3-yl)-1H-pyrazole-1-carboxamide]	7.30 to 8.00	
CN1C(=O)[C@@H](NC(=O)n2cc(Cc3cccc(F)c3)cn2)COc2ccc(C(=O)N3CCNCC3)cc21 [Example 8, (S)-4-(3-fluorobenzyl)-N-(5-methyl-4-oxo-7-(piperazine-1-carbonyl)-2,3,4,5-tetrahydrobenzo[b][1,4]oxazepin-3-yl)-1H-pyrazole-1-carboxamide]	< 7.30	
